Source: US6613772B1, “Substituted 2-aryl-4-amino-chinazolines, method for the production and use thereof as medicaments” (Aventis Pharma Deutschland GmbH, priority 1997, dated 2003)

Assays:
[1] = molecular target: T1, soluble guanylate cyclase (sGC) (Bos taurus, UniProt P16068+P19687); test: Activation of the soluble guanylate cyclase (cGMP enzyme immunoassay); assay type: biochemical; details: test substance 50 μM; sGC isolated from bovine lung; [cGMP] test substance/[cGMP] control (basal activity, solvent); 37° C., 15 to 20 minutes
T1 construct: The sGC employed had been isolated from bovine lung; from tissue; host or cells: bovine lung
T1 sequence (P19687 1-691): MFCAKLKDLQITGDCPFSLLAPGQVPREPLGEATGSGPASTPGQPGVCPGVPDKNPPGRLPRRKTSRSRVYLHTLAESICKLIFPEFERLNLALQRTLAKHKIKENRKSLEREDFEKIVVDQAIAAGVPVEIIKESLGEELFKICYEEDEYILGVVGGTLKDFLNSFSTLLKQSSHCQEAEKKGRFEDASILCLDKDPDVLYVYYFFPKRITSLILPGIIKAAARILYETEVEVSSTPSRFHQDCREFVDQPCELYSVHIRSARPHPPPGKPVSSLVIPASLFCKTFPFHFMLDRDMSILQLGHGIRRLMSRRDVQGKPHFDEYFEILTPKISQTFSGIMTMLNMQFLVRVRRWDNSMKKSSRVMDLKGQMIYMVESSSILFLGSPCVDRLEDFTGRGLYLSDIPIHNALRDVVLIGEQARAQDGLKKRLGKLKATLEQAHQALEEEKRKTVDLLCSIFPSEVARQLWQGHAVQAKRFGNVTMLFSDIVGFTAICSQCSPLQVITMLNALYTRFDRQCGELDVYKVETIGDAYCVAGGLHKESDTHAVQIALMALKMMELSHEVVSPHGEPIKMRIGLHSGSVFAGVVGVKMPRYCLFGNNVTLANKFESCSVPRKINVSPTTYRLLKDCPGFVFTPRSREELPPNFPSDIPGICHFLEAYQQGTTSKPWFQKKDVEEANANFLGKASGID
T1 sequence (P16068 1-619): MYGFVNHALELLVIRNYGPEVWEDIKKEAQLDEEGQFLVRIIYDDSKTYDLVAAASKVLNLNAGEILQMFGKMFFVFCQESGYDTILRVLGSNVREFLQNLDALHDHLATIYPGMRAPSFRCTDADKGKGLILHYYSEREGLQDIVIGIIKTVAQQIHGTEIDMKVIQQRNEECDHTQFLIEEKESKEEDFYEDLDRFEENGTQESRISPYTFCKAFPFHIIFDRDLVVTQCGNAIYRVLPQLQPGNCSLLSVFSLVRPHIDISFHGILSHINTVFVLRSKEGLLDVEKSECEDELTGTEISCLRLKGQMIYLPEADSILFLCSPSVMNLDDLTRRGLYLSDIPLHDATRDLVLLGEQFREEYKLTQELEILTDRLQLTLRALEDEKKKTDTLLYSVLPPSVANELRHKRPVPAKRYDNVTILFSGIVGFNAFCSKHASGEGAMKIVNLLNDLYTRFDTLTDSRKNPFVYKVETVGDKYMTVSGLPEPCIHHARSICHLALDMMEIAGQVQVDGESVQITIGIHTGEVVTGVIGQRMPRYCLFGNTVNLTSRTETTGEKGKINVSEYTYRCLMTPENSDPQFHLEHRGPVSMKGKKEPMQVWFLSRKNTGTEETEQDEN
Method: Activation of the Soluble Guanylate Cyclase
The activation of the soluble guanylate cyclase (sGC), which catalyzes the conversion of guanosine triphosphate (GTP) into cyclic guanosine monophosphate (cGMP) and pyrophosphate, by the compounds according to the invention was quantified with the aid of an enzyme immunoassay (EIA) from Amersham. For this, the test substances were first incubated with sGC in microtiter plates and then the amount of resulting cGMP was determined. The sGC employed had been isolated from bovine lung (see Methods in Enzymology, Volume 195, p. 377). The test solutions (100 μl per well) contained 50 mM triethanolamine (TEA) buffer (pH 7.5), 3 mM MgCl2, 3 mM reduced glutathione (GSH), 0.1 mM GTP, 1 mM 3-isobutyl-1-methylxanthine (IBMX), suitably diluted enzyme solution and the test substance or, in the case of the control experiments, solvent. The test substances were dissolved in dimethyl sulfoxide (DMSO) and the solution was diluted with DMSO/water such that the final concentration of test substance in the test solution was 50 μM. The DMSO concentration in the test solution was 5% (v/v). The reaction was started by addition of the sGC. The reaction mix was incubated at 37° C. for 15 to 20 minutes and then stopped by ice-cooling and addition of the stop reagent (50 mM EDTA, pH 8.0). An aliquot of 50 μl was taken and employed for the determination of the cGMP content using the acetylation protocol of the Amersham cGMP EIA kit. The absorption of the samples was measured at 450 nm (reference wavelength 620 nm) in a microtiter plate reader. The cGMP concentration was determined by means of a calibration curve which was obtained under the same experimental conditions. The activation of the sGC by a test substance is indicated as n-fold stimulation of the basal enzyme activity which was found in the control experiments (with solvent instead of test substance calculated according to the formula
n-fold stimulation=[cGMP]test substance/[cGMP]control).

Structure (SMILES)	melting point [°C]	n-fold Stimulation [1] [n-fold]
COc1cc2nc(-c3ccc(C)cc3)nc(NCCO)c2cc1OC [Example 37, 2-(4-Methylphenyl)-4-(2-hydroxyethylamino)-6,7-dimethoxyquinazoline]	217	4
COc1cc2nc(-c3ccc(C)cc3)nc(NCc3cccnc3)c2cc1OC [Example 38, 2-(4-Methylphenyl)-4-((3-pyridylmethyl)amino)-6,7-dimethoxyquinazoline]	239	7
COc1cc2nc(-c3ccc(C)cc3)nc(N3CCN(C)CC3)c2cc1OC [Example 39, 2-(4-Methylphenyl)-4-(4-methylpiperazino)-6,7-dimethoxyquinazoline]	166	3
COc1cc2nc(-c3ccc(C(F)(F)F)cc3)nc(NCCO)c2cc1OC [Example 42, 2-(4-Trifluoromethylphenyl)-4-(2-hydroxyethylamino)-6,7-dimethoxyquinazoline]	210	3
COc1cc2nc(-c3ccc(C(F)(F)F)cc3)nc(NCc3cccnc3)c2cc1OC [Example 44, 2-(4-Trifluoromethylphenyl)-4-((3-pyridylmethyl)amino)-6,7-dimethoxyquinazoline]	238	4
COc1cc2c(N3CCC(C(N)=O)CC3)nc(-c3ccc(Cl)cc3)nc2c(OC)c1OC [Example 67, 2-(4-Chlorophenyl)-4-(4-aminocarbonylpiperidino)-6,7,8-trimethoxyquinazoline]	215	7
COc1cc2nc(-c3ccc(C)cc3)nc(N3CCN(c4ccccn4)CC3)c2cc1OC [Example 79, 2-(4-Methylphenyl)-4-(4-(2-pyridyl)piperazino)-6,7-dimethoxyquinazoline]	191	6
COc1cc2nc(-c3ccc(Cl)cc3)nc(NC3CCCC3)c2cc1OC [Example 92, 2-(4-Chlorophenyl)-4-cyclopentylamino-6,7-dimethoxyquinazoline]	231	6
COc1cc2nc(-c3ccc(Cl)cc3)nc(N[C@H]3CC[C@H](O)CC3)c2cc1OC [Example 93, 2-(4-Chlorophenyl)-4-(trans-4-hydroxycyclohexylamino)-6,7-dimethoxyquinazoline]	261	14
COc1cc2c(N[C@H]3CC[C@H](O)CC3)nc(-c3ccc(Cl)cc3)nc2c(OC)c1OC [Example 94, 2-(4-Chlorophenyl)-4-(trans-4-hydroxycyclohexylamino)-6,7,8-trimethoxyquinazoline]	199	13
COc1cc2nc(-c3ccc(C)cc3)nc(N[C@H]3CC[C@H](O)CC3)c2cc1OC [Example 96, 2-(4-Methylphenyl)-4-(trans-4-hydroxycyclohexylamino)-6,7-dimethoxyquinazoline]	243	16
COc1cc2nc(-c3ccc(C)cc3)nc(NC3CCCC3)c2cc1OC [Example 98, 2-(4-Methylphenyl)-4-cyclopentylamino-6,7-dimethoxyquinazoline]	101	8
